The results in this text go back to US11884671B2, “Purinone compounds and their use in treating cancer” (ASTRAZENECA AB, priority 2018, dated 2024).

The target of assay [1] is TTK (Homo sapiens (Human), UniProt P33981). In words: TTK enzyme assay (LanthaScreen Eu Kinase Binding). As to conditions: arithmetic mean of two or more experiments; for IC50: read-out: TTK enz pIC50 (converted). As to the method:
The inhibitory activity of compounds against TTK was determined in a LanthaScreen® Eu Kinase Binding assay run by ThermoFisher Scientific as part of their SelectScreen® Biochemical Kinase Profiling Service. The LanthaScreen® Eu Kinase Binding assay format uses binding of an Alexa Fluor® conjugate or “tracer” to a kinase, which is detected by addition of a Eu-labeled anti-tag antibody. […] The degree of FRET measured in the assay is used to determine the binding of a compound.
(§1) 10 point three-fold dilution compound concentration-response curves, with a top concentration of 10 μM were generated from 10 mM stocks of compound solubilised in DMSO. All assays were performed in white, low volume Greiner 384-well plates (cat. #784207, Greiner), in a total reaction volume of 16 μL and 1% (v/v) final DMSO concentration. […] Plates were then read using a fluorescence plate reader. IC50 values were calculated using XLfit software (IDBS Ltd, Surrey, UK), with the curve fit to model number 205 (sigmoidal dose-response model).
(In general: Time-resolved FRET reads energy transfer from a long-lived donor to a nearby acceptor.)

The target in assay [2] is AURKB (Aurora B) (Homo sapiens (Human), UniProt Q96GD4). As to the kind of experiment: Aurora-B enzyme assay (Z'-LYTE). Type of assay: biochemical. As to conditions: 75 μM ATP, arithmetic mean of two or more experiments; for IC50: read-out: AurB enz pIC50 (converted). The procedure:
(§2) The inhibitory activity of compounds against AURKA, AURKB, JAK1, JAK2 and JAK3 was determined in Z′-LYTE® assays run by ThermoFisher Scientific as part of their SelectScreen® Biochemical Kinase Profiling Service. The Z′-LYTE® biochemical assay format employs a fluorescence-based, coupled-enzyme format and is based on the differential sensitivity of phosphorylated and non-phosphorylated peptides to proteolytic cleavage. The peptide substrate is labeled with two fluorophores—one at each end—that make up a FRET pair. In the primary reaction, the kinase transfers the gamma-phosphate of ATP to a single tyrosine, serine or threonine residue in a synthetic FRET-peptide. In the secondary reaction, a site-specific protease recognises and cleaves non-phosphorylated FRET-peptides. Phosphorylation of FRET-peptides suppresses cleavage by the Development Reagent. Cleavage disrupts FRET between the donor (i.e., coumarin) and acceptor (i.e., fluorescein) fluorophores on the FRET-peptide, whereas uncleaved, phosphorylated FRET-peptides maintain FRET. A ratiometric method, which calculates the ratio (the Emission Ratio) of donor emission to acceptor emission after excitation of the donor fluorophore at 400 nm, is used to quantitate reaction progress. Both cleaved and uncleaved FRET-peptides contribute to the fluorescence signals and therefore to the Emission Ratio. The extent of phosphorylation of the FRET-peptide can be calculated from the Emission Ratio.
as §1, with “black, non-binding,” for “white,”, “Corning” for “Greiner”, “#4514, Corning),” for “#784207, Greiner),”, “10” for “16”, “The kinase reaction was” for “Plates were”, “quenched by the addition of 5 μL of Development Reagent (ThermoFisher Scientific proprietary). […]” for “read using a fluorescence plate reader.”
Aurora B (AurB): The 2×AURKB (Aurora B)/Ser/Thr 01 (ThermoFisher Scientific proprietary) mixture was prepared in 50 mM HEPES pH 7.5, 0.01% BRIJ-35, 10 mM MgCl2, 1 mM EGTA. […] After the 1 hour Kinase Reaction incubation, 5 μL of a 1:4096 dilution of Development Reagent was added.

In assay [3] the target is AURKA (Aurora A) (Homo sapiens (Human), UniProt O14965). In words: Aurora-A enzyme assay (Z'-LYTE). The assay is classed as biochemical. The note with it: 10 μM ATP, arithmetic mean of two or more experiments; for IC50: read-out: AurA enz pIC50 (converted). As to the method:
as §2
as §1, with “black, non-binding,” for “white,”, “Corning” for “Greiner”, “#4514, Corning),” for “#784207, Greiner),”, “10” for “16”, “The kinase reaction was” for “Plates were”, “quenched by the addition of 5 μL of Development Reagent (ThermoFisher Scientific proprietary). […]” for “read using a fluorescence plate reader.”
Aurora A (AurA): The 2×AURKA (Aurora A)/Ser/Thr 01 (ThermoFisher Scientific proprietary) mixture was prepared in 50 mM HEPES pH 7.5, 0.01% BRIJ-35, 10 mM MgCl2, 1 mM EGTA. […] After the 1 hour Kinase Reaction incubation, 5 μL of a 1:4096 dilution of Development Reagent was added.

Chain of AURKA (Aurora A) (O14965 whole entry): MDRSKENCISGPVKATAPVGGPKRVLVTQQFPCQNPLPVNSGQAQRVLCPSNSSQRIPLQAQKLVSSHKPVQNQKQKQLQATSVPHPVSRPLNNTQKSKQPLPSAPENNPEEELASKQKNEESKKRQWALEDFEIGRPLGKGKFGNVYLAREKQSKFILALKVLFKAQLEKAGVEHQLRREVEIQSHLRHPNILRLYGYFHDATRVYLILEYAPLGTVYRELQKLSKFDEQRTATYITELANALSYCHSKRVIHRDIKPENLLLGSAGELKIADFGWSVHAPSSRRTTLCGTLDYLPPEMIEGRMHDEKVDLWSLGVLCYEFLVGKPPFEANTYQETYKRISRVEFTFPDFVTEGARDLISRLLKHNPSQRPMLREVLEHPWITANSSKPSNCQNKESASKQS
Chain of TTK (P33981 whole entry): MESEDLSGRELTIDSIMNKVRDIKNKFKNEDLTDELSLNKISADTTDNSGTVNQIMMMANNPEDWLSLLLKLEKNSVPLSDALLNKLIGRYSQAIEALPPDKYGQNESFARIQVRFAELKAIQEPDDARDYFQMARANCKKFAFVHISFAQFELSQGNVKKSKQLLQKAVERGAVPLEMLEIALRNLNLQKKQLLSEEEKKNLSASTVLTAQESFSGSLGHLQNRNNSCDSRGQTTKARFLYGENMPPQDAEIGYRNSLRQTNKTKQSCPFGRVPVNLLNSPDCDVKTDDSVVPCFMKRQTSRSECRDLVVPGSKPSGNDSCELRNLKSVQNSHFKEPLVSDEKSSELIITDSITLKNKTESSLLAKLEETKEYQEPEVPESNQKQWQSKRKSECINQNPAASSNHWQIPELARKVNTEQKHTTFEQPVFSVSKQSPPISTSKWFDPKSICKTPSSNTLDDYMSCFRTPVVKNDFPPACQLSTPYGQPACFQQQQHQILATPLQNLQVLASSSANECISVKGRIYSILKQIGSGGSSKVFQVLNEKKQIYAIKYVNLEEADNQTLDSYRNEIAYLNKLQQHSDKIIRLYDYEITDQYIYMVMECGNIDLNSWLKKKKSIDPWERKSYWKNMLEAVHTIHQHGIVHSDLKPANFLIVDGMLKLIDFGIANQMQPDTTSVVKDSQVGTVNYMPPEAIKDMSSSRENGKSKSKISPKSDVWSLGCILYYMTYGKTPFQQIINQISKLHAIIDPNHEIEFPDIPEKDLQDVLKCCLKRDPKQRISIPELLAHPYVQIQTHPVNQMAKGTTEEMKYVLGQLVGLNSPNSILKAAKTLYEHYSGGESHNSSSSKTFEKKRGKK
Chain of AURKB (Aurora B) (Q96GD4 whole entry): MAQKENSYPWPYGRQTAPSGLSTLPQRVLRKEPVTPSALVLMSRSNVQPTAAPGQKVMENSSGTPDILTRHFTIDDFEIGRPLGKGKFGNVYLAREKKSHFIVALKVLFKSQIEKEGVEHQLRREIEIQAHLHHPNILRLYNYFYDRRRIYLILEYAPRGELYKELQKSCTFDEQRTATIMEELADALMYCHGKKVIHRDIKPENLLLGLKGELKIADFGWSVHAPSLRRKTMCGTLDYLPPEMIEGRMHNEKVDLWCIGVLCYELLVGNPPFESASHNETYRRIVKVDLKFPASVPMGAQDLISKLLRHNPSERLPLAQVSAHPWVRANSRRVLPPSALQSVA

`CC(=O)N1CCC(n2c(=O)n(C)c3cnc(Nc4cc5ccnnc5cc4C)nc32)CC1` [Example 1, 9-(1-acetylpiperidin-4-yl)-7-methyl-2-((7-methylcinnolin-6-yl)amino)-7,9-dihydro-8H-purin-8-one]: the “TTK enz pIC50” value in assay [1] is on record as 5.9. The “AurB enz pIC50” value in assay [2] is under 5. In assay [3], the “AurA enz pIC50” value was under 5.
As for `CC(=O)N1CCC(n2c(=O)n(C)c3cnc(Nc4cc5nccnc5cc4C)nc32)CC1` [Example 2, 9-(1-acetylpiperidin-4-yl)-7-methyl-2-((7-methylquinoxalin-6-yl)amino)-7,9-dihydro-8H-purin-8-one], the “TTK enz pIC50” value in assay [1] is listed as 5.8. Besides, the “AurB enz pIC50” value in assay [2] is under 5. Further, the “AurA enz pIC50” value in assay [3] is given as under 5.
In the case of `CC(=O)N1CCC(n2c(=O)n(C)c3cnc(Nc4cc5cncnc5cc4C)nc32)CC1` [Example 3, 9-(1-acetylpiperidin-4-yl)-7-methyl-2-((7-methylquinazolin-6-yl)amino)-7,9-dihydro-8H-purin-8-one], the “TTK enz pIC50” value in assay [1] was 5.4. Further, the “AurB enz pIC50” value in assay [2] is under 5. In addition, the “AurA enz pIC50” value in assay [3] was under 5.
With `CC(=O)N1CCC(n2c(=O)n(C)c3cnc(Nc4cc5ncc(C)nc5cc4C)nc32)CC1` [Example 4, 9-(1-acetylpiperidin-4-yl)-2-((2,7-dimethylquinoxalin-6-yl)amino)-7-methyl-7,9-dihydro-8H-purin-8-one], the “TTK enz pIC50” value in assay [1] is given as 6.0. Also, in assay [2], the “AurB enz pIC50” value is reported as under 5. Further, in assay [3], the “AurA enz pIC50” value is given as under 5.
Regarding `CC(=O)N1CCC(n2c(=O)n(C)c3cnc(Nc4cc5nc(C)cnc5cc4C)nc32)CC1` [Example 5, 9-(1-acetylpiperidin-4-yl)-2-((3,7-dimethylquinoxalin-6-yl)amino)-7-methyl-7,9-dihydro-8H-purin-8-one], the “TTK enz pIC50” value in assay [1] is 5.3. Moreover, the “AurB enz pIC50” value in assay [2] is given as under 5. Moreover, in assay [3], the “AurA enz pIC50” value is under 5.
Turning to `Cc1cc2ncccc2cc1Nc1ncc2c(n1)n([C@H]1CC[C@H](O)CC1)c(=O)n2C` [Example 6, 9-((1r,4r)-4-hydroxycyclohexyl)-7-methyl-2-((7-methylquinolin-6-yl)amino)-7,9-dihydro-8H-purin-8-one], the “TTK enz pIC50” value in assay [1] worked out at 7.2. For the same compound, in assay [2], the “AurB enz pIC50” value is reported as under 5. For the same compound, the “AurA enz pIC50” value in assay [3] was under 5.
As to `Cc1cc2nnccc2cc1Nc1ncc2c(n1)n([C@H]1CC[C@H](O)CC1)c(=O)n2C` [Example 7, 9-((1r,4r)-4-hydroxycyclohexyl)-7-methyl-2-((7-methylcinnolin-6-yl)amino)-7,9-dihydro-8H-purin-8-one], in assay [1], the “TTK enz pIC50” value worked out at 6.9. The “AurB enz pIC50” value in assay [2] was under 5. Further, the “AurA enz pIC50” value in assay [3] is on record as under 5.
With `Cc1cc2nccc(C)c2cc1Nc1ncc2c(n1)n([C@H]1CC[C@H](O)CC1)c(=O)n2C` [Example 8, 2-((4,7-dimethylquinolin-6-yl)amino)-9-((1r,4r)-4-hydroxycyclohexyl)-7-methyl-7,9-dihydro-8H-purin-8-one], the figures for the IC50 in assay [1], in assay [2] and in assay [3] were 0.631 µM, over 10 µM and over 10 µM, respectively.
Consider `COc1ccnc2cc(C)c(Nc3ncc4c(n3)n([C@H]3CC[C@H](O)CC3)c(=O)n4C)cc12` [Example 9, 9-((1r,4r)-4-hydroxycyclohexyl)-2-((4-methoxy-7-methylquinolin-6-yl)amino)-7-methyl-7,9-dihydro-8H-purin-8-one], for which the “TTK enz pIC50” value in assay [1] turned out to be 6.1. Besides, the “AurB enz pIC50” value in assay [2] is recorded as under 5. In addition, in assay [3], the “AurA enz pIC50” value is given as under 5.1.
`Cc1cc2nccnc2cc1Nc1ncc2c(n1)n([C@H]1CC[C@H](O)CC1)c(=O)n2C` [Example 10, 9-((1r,4r)-4-hydroxycyclohexyl)-7-methyl-2-((7-methylquinoxalin-6-yl)amino)-7,9-dihydro-8H-purin-8-one]: the IC50 is 0.398 µM in assay [1], over 10 µM in assay [2] and over 10 µM in assay [3].
As for `Cc1cc2ncccc2cc1Nc1ncc2c(n1)n([C@H]1CC[C@@H](O)CC1)c(=O)n2C` [Example 11, 9-((1s,4s)-4-hydroxycyclohexyl)-7-methyl-2-((7-methylquinolin-6-yl)amino)-7,9-dihydro-8H-purin-8-one], the IC50 in assay [1] was 0.398 µM; in assay [2] it was over 10 µM; in assay [3], over 10 µM.
Turning to `Cc1cc2nnccc2cc1Nc1ncc2c(n1)n([C@H]1CC[C@@H](O)CC1)c(=O)n2C` [Example 12, 9-((1s,4s)-4-hydroxycyclohexyl)-7-methyl-2-((7-methylcinnolin-6-yl)amino)-7,9-dihydro-8H-purin-8-one], in assay [1], the “TTK enz pIC50” value came to 6.3. For the same compound, in assay [2], the “AurB enz pIC50” value is given as under 5. Besides, the “AurA enz pIC50” value in assay [3] is reported as under 5.
Regarding `Cc1cc2nccnc2cc1Nc1ncc2c(n1)n([C@H]1CC[C@@H](O)CC1)c(=O)n2C` [Example 13, 9-((1s,4s)-4-hydroxycyclohexyl)-7-methyl-2-((7-methylquinoxalin-6-yl)amino)-7,9-dihydro-8H-purin-8-one], the IC50 in assay [1] was 0.316 µM; in assay [2], over 10 µM; in assay [3] it was over 10 µM.
As to `Cc1cc2nccnc2cc1Nc1ncc2c(n1)n([C@H]1CC[C@](C)(O)CC1)c(=O)n2C` [Example 18, 9-((1r,4r)-4-hydroxy-4-methylcyclohexyl)-7-methyl-2-((7-methylquinoxalin-6-yl)amino)-7,9-dihydro-8H-purin-8-one], the results for the IC50 in assay [1], in assay [2] and in assay [3] were 1.58 µM, over 10 µM and over 10 µM, respectively.
Take `Cc1cc2nccnc2cc1Nc1ncc2c(n1)n([C@H]1CC[C@@](C)(O)CC1)c(=O)n2C` [Example 19, 9-((1s,4s)-4-hydroxy-4-methylcyclohexyl)-7-methyl-2-((7-methylquinoxalin-6-yl)amino)-7,9-dihydro-8H-purin-8-one]: the figures for the IC50 in assay [1], in assay [2] and in assay [3] were 0.2 µM, over 10 µM and over 10 µM, respectively.
Take `Cc1cc2nccnc2cc1Nc1ncc2c(n1)n([C@]1(C)CC[C@H](O)CC1)c(=O)n2C` [Example 20, 9-((1s,4s)-4-hydroxy-1-methylcyclohexyl)-7-methyl-2-((7-methylquinoxalin-6-yl)amino)-7,9-dihydro-8H-purin-8-one]: the “TTK enz pIC50” value in assay [1] stood at 6.4. Moreover, in assay [2], the “AurB enz pIC50” value is reported as under 5. The “AurA enz pIC50” value in assay [3] is reported as under 5.
With `Cc1cc2nnccc2cc1Nc1ncc2c(n1)n([C@H]1CCOC1)c(=O)n2C` [Example 21, (S)-7-methyl-2-((7-methylcinnolin-6-yl)amino)-9-(tetrahydrofuran-3-yl)-7,9-dihydro-8H-purin-8-one], the “TTK enz pIC50” value in assay [1] was determined as 6.4. Further, the “AurB enz pIC50” value in assay [2] is given as under 5. Further, in assay [3], the “AurA enz pIC50” value is on record as under 5.
In the case of `Cc1cc2nccnc2cc1Nc1ncc2c(n1)n([C@H]1CCOC1)c(=O)n2C` [Example 22, (S)-7-methyl-2-((7-methylquinoxalin-6-yl)amino)-9-(tetrahydrofuran-3-yl)-7,9-dihydro-8H-purin-8-one], the “TTK enz pIC50” value in assay [1] stood at 5.5. Besides, in assay [2], the “AurB enz pIC50” value is reported as under 5. In addition, the “AurA enz pIC50” value in assay [3] is given as under 5.
